Molecules are shown by their SMILES. A value given as a limit tells only on which side of the number the result lay.

Experimental findings from ChEMBL document CHEMBL4043066, “Drug Discovery Targeting Bromodomain-Containing Protein 4” (J Med Chem, 2017) are described below.

In data set [1] the test system is MV4-11. Briefly: Antiproliferative activity against human MV4-11 cells after 4 days by CellTiter-Glo assay. In kind it is functional, cell-based. The settings on record: MV4-11, 96 h.
The subject of the next data set is MT4. Put plainly: Antiproliferative activity against human MT4 cells after 5 days by CellTiter-Glo assay. The format is functional. The settings on record: MT4, 120 h. In general terms: In ATP-based viability assays light output follows the ATP content of the culture.
The next data set is filed under the species Mus musculus. Briefly: Antiinflammatory activity in CD1 mouse assessed as inhibition of LPS-induced IL-6 production pretreated for 1 hr followed by LPS stimulation after 2 hrs by immunoassay relative to control. In kind it is functional.
For data set [2], the system named is MX1. Briefly: Antiproliferative activity against human MX1 cells after 72 hrs by CellTiter-Glo assay. In kind it is functional, cell-based. The settings on record: MX1, 72 h.
Data set [3] addresses T1, Bromodomain-containing protein 4 (Homo sapiens, UniProt O60885). Put plainly: Inhibition of recombinant His-tagged BRD4 (unknown origin) using biotinylated acetyl-histone H4 as substrate by AlphaLisa assay. (In Alpha technology, singlet oxygen from a donor bead excites a nearby acceptor bead.)
Data set [4] concerns the target T1, Bromodomain-containing protein 4. Put plainly: Inhibition of recombinant His-tagged BRD4 bromodomain 1 (K57 to E168 residues) (unknown origin) after 1 hr by TR-FRET assay. For orientation: Time-resolved FRET reads energy transfer from a long-lived donor to a nearby acceptor.
Data set [5] shares this target. Briefly: Inhibition of recombinant His-tagged BRD4 bromodomain 2 (E352 to E168 residues) (unknown origin) after 1 hr by TR-FRET assay.
The target is the same in data set [6]. Put plainly: Inhibition of His-epitope tagged BRD4 bromodomain 1 (44 to 168 residues) (unknown origin) using biotinylated histone H4 as substrate after 1 hr by AlphaScreen assay.
The target is the same in data set [7]. Briefly: Inhibition of His-epitope tagged BRD4 bromodomain 2 (333 to 460 residues) (unknown origin) using biotinylated histone H4 as substrate after 1 hr by AlphaScreen assay.
Data set [8] relates to MX1. Put plainly: Antiproliferative activity against human MX1 cells incubated for >= 72 hrs by CellTiter-Glo assay. The format is functional, cell-based. The following applies: MX1, 72 h.
The target in data set [9] is T1, Bromodomain-containing protein 4. Put plainly: Inhibition of GST-tagged BRD4 bromodomain 1 (44 to 168 residues) (unknown origin) using biotinylated acetyl-histone H4 peptide as substrate after 30 mins in dark by AlphaScreen assay.
For data set [10] the target is unchanged. Briefly: Inhibition of biotin-labeled acetylated peptide binding to BRD4 bromodomain 1 (unknown origin) expressed in Escherichia coli BL21 after 1 hr by BROMOscan assay.
Data set [11] in a line: Metabolic stability in human liver microsomes assessed as compound remaining at 1 uM after 30 mins in presence of NADPH by LC/MS analysis. The format is ADME, microsome. The following applies: read-out: Stability.
A short description of data set [12]: Metabolic stability in CD1 mouse liver microsomes assessed as compound remaining at 1 uM after 30 mins in presence of NADPH by LC/MS analysis. The format is ADME, microsome. The following applies: read-out: Stability.
Data set [13] deals with MV4-11. Put plainly: Growth inhibition of human MV4-11 cells after 4 days by CellTiter-Glo assay. The format is functional. The settings on record: MV4-11, 96 h.
Data set [14] deals with T1, Bromodomain-containing protein 4. Briefly: Inhibition of His-tagged BRD4 (44 to 477 residues) (unknown origin) using acetyl-histone H4 as substrate after 35 mins by TR-FRET assay.
A short description of data set [15]: Antitumor activity against human JJN3R cells xenografted subcutaneously in mouse assessed as tumor growth inhibition at 1 mg/kg, po relative to control. The format is functional. The settings on record: JJN-3R, read-out: TGI.
Data set [16] concerns the target T1, Bromodomain-containing protein 4. Put plainly: Inhibition of recombinant human N-terminal His6-tagged BRD4 bromodomain 1 expressed in Escherichia coli BL21(DE3) using biotinylated histone peptide as substrate after 60 mins by TR-FRET assay.
For data set [17] the target is unchanged. Briefly: Inhibition of GST-tagged BRD4 (unknown origin) using biotinylated acetyl-histone H4 peptide as substrate after 30 mins by AlphaScreen assay.
Data set [18] has as its system MV4-11. Briefly: Antiproliferative activity against human MV4-11 cells. In kind it is functional, cell-based.
Data set [19] has as its system MX1. Briefly: Antitumor activity against human MX1 cells xenografted subcutaneously in SCID mouse assessed as tumor growth inhibition at 100 mg/kg, po after day 17 relative to control. The format is functional. The settings on record: MX1, 408 h, read-out: TGI.
Data set [20] concerns MV4-11. Briefly: Antiproliferative activity against human MV4-11 cells after 72 hrs by alamarBlue assay. In kind it is functional, cell-based. The settings on record: MV4-11, 72 h.

As to `CCn1nc(C)c2c1C(=O)N(c1cc(C)c(=O)n(C)c1)C2c1ccc(Cl)cc1F` (centres undefined), in the data set on MV4-11 [1], the concentration for half-maximal inhibition (IC50) – broadly, the concentration at which inhibition is half-maximal – is 7.7 nM. `Cc1noc(C)c1-c1cc(-c2c(C3CC3)n[nH]c2C2CC2)c2[nH]c(=O)[nH]c2c1`: in the data set with MT4, half-maximal cytotoxicity (CC50) was put at 9.1 nM. On to `CCS(=O)(=O)c1ccc2c(c1)-c1cn(C)c(=O)cc1OCCCCc1cc(Cl)ccc1O2`, for which the “inhibition (INH)” value in the data set filed under Mus musculus came to 83%. The midpoint of the response in the data set on MX1 [2], the EC50, lay at 5.7 nM. Also, the half-maximal inhibitory concentration (IC50) in [3] was determined as 0.93 nM. For `CCOc1cc(=O)n(C)cc1-c1cc(NC(=O)CCc2ccccc2)ccc1Oc1ccc(F)cc1F`, the 50% inhibitory concentration (IC50) in data set [4] stood at 69 nM; in data set [5] it was 11 nM. Besides, in the data set on MX1 [2], the EC50 (in general, the concentration that produces a half-maximal response) came out at 398 nM.

For the molecule `CC(=O)N1c2ccc(-c3cnn([C@H]4CCNC[C@H]4F)c3)c(OCC3CCC3)c2CC[C@H]1C`, the figures for the half-inhibitory concentration (IC50) in [6] and in data set [7] were under 100 nM and under 50 nM, respectively. In the data set with MX1 [8], `CCS(=O)(=O)Nc1cc(-c2cn(C)c(=O)c3[nH]ccc23)c(Oc2ccc(F)cc2F)cc1CN1CCOCC1` gave an EC50 of 16 nM. Regarding `Cc1nnc2c(NC(C)C)nc(-c3nc4cnc(N5CCOC[C@H]5C)cc4n3C(C)CC3CC3)cn12` (some centres undefined), the IC50 in data set [9] is 9 nM. The molecule `COc1ccc(S(=O)(=O)Nc2cccc(Oc3ccc(S(C)(=O)=O)cc3-c3cn(C)c(=O)c4[nH]ccc34)c2)cc1` returned an EC50 in the data set on MX1 [8] of 97 nM.

Regarding `Cc1sc2c(c1C)C(c1ccc(Cl)cc1)=N[C@@H](CC(=O)OCCCCCCO)c1nnc(C)n1-2`, binding in [10] was characterised by a dissociation constant (Kd) of 0.43 nM. For `CC(=O)N1c2ccc(-c3cnn(C4CC4)c3)cc2C(OC[C@H]2CC2(F)F)C[C@H]1C` (some centres undefined), the values for the half-inhibitory concentration (IC50) in data set [6] and in data set [7] were under 100 nM and under 50 nM, respectively.

For `COc1cc2c(cc1-c1c(C)noc1C)ncc1nc(CN3CCOCC3)n([C@H](C)COC(F)F)c12`, the values for the remaining at 0.5 h, 1 µM in data set [11] and in data set [12] were 1.9% and 3.7%, respectively. Taken in the same sequence, the figures for `COc1cc2c(cc1-c1c(C)noc1C)ncc1nc(C3CCC(F)(F)CC3)n([C@H](C)COC(F)F)c12` were 62% and 35%.

For the molecule `Cc1cc(N2C(=O)c3c(C4CC4)cn(C4COC4)c3C2c2ccc(Cl)cc2)cn2c(C)nnc12` (centres undefined), in the data set on MV4-11 [13], the GI50 (in general, the concentration giving 50% growth inhibition) came out at 2.9 nM. The molecule `COc1ncccc1-c1c(C2CC2)c2c(n1C)C(c1ccc(Cl)cc1)N(c1cc(C)c3nnc(C)n3c1)C2=O` (centres undefined) registered a 50% inhibitory concentration (IC50) in data set [14] of under 11 nM. In the data set with MV4-11 [13], this molecule displayed a GI50 of 3 nM. On to `[2H]C([2H])([2H])c1nnn(C)c1-c1cnc2c3ccc(C(C)(C)O)c(F)c3n([C@H](c3ccccc3)C3CCOCC3)c2c1`, for which the inhibition in vivo at 1 mg/kg in [15] worked out at 103%. The IC50 in data set [16] is under 5 nM. On to `Cc1noc(C)c1-c1ccc2c(c1)C(c1ccccc1)N1CCCOC21` (centres undefined), for which it took 36 nM to reach half-maximal inhibition in data set [17] (IC50).

For `Cc1sc2c(c1C)C(c1ccc(Cl)cc1)=N[C@@H](CC(=O)OC(C)(C)C)c1nnc(C)n1-2`, in the data set with MV4-11 [18], the IC50 came to 72 nM. `COC[C@@H](C)n1c(-c2cn3c(C)nnc3c(NC(C)C)n2)nc2cc3c(cc21)N(C(C)C)S(=O)(=O)C3(C)C` came in with a 50% inhibitory concentration (IC50) in data set [9] of 17 nM.

On to `CCS(=O)(=O)c1ccc2c(c1)-c1cn(C)c(=O)cc1OCCCCc1cc(F)cc(F)c1O2`, for which the “inhibition (INH)” value in the data set filed under Mus musculus was found to be 81%. This molecule registered an EC50 in the data set with MX1 [2] of 8.7 nM. In data set [3], the half-inhibitory concentration (IC50) is 1.3 nM. As to `Cc1[nH]c(-c2cc(NS(C)(=O)=O)ccc2Oc2ccccc2)c2c1C(=O)CCC2`, the inhibition in vivo at 100 mg/kg in the data set with MX1 [19] was found to be 80%. With `CNC(=O)N1N=C(c2ccc(N3CC4(CCS4(=O)=O)C3)cc2)c2cc(OC(F)(F)F)ccc2C[C@@H]1C`, the IC50 in the data set with MV4-11 [20] is 30 nM.

In [17], `Cc1noc(C)c1-c1ccc2c(c1)C(c1ccccc1)N(C)C(=O)N2` (centres undefined) registered an IC50 of 27 nM.
